In patent US4764515A, “Antitussive and central sedative composition of d-isomer of 3-(4-phenyl-1-piperazinyl)-1,2-propanediol” (priority 1983, dated 1988):
“Also recorded” adds a separate entry of the source. Read-outs that look alike come from different tables or passages of the source.

Columns and labels:
Acute toxicity, rat = settings: in vivo, 14 days from administration, C.L. 95%, read-out: DL50
From the text: (§1) Acute toxicity (at 14 days from the admi-
(§2) nistration) of (±) racemic dropropizine
(§3) (+) dextrorotatory isomer and (-) laevorotatory isomer

oedema by carrageenin = assay: Carrageenin oedema test in the rat (anti-inflammatory activity); assay type: in vivo; settings: po, p.o. 1 h before phlogistic agent, C.L. 95%
From the text: (§4) Screening for anti-inflammatory activity has been carried out employing the established carrageenin and ovoalbumin oedema tests in the rat, according to the methods described by C. A. Winter et al., Proc. Soc. Exp. Biol. Med., 111, 544, 1962 and Turne in "Screening Methods in Pharmacology" Acad. Press N.Y., cpt. 14, p. 164, 1965, respectively.
(§5) The compounds under exam have been administered by the oral route one hour before the injection of the phlogistic agent.

antitussive activity = assay: Antitussive activity (overall statement); assay type: in vivo, guinea pig; settings: in words; versus racemic mixture; listed as laevorotatory isomer
Experimental: (§6) The results of the antitussive activity tests, carried out in the guinea pig after electrical stimulation of the vagus nerv and exposure for 5 minutes to a 5% citric acid aerosol according to the methods of R. M. Piekirning et al., Arzn.
(§7) The compounds under exam have been administered intravenously 5 minutes before the electric stimulation and orally 60 minutes before the citric acid aerosol.

[1] = test system: antiinflammatory activity; assay: Antiinflammatory activity (overall statement); assay type: in vivo, rat; settings: in words
From the text: as §4, §5

oedema by ovoalbumin = assay: Ovoalbumin oedema test in the rat (anti-inflammatory activity); assay type: in vivo; settings: po, p.o. 1 h before phlogistic agent, C.L. 95%
From the text: as §4, §5

5% citric acid aerosol = assay: Antitussive activity in the guinea pig after exposure to 5% citric acid aerosol; assay type: in vivo; settings: Cavia porcellus, po, read-out: DE50 5% Citric acid (antitussive effect)
Acute toxicity, mouse = settings: in vivo, 14 days from administration, C.L. 95%, read-out: DL50
From the text: as §1, §2, §3

Central Nervous System [2] = assay: Influence on the sleeping time induced by barbiturates in the mouse (CNS activity); assay type: in vivo; settings: 30 min before secobarbital 35 mg/kg i.p., mean ± SE, controls 22.58 ± 1.14
From the text: (§8) Tests have been carried out to determine the CNS activity, by evaluating the influence on the sleeping time induced by barbiturates in the mouse, according to the method of F. M. Berger "Methods in Drug Evaluation" Proc. Int. Symp. Milan, September 1965, North Holland Pubbl. Co., and by recording the electroencephalographic and electromiographic curves in the rat with chronically implanted electrodes, calculating the time (in seconds) in the awakening and sleeping condition (including synchronized and unsynchronized sleep).
(§9) The compounds under exam have been administered orally, in the sleeping time test 30 minutes before the i.p. injection of 35 mg/kg of secobarbital, while in the electroencephalographic test at the beginning of recording.

[3] = test system: electrical stimulation of the vagus nerv; assay: Antitussive activity in the guinea pig after electrical stimulation of the vagus nerve; assay type: in vivo; settings: Cavia porcellus, iv, intravenously 5 min before electric stimulation, C.F. 95%, read-out: DE50 Electric stimulus (antitussive effect)
Experimental: as §6, §7

Central Nervous System [4] = assay: Electroencephalographic and electromiographic recording in the rat with chronically implanted electrodes (CNS activity); assay type: in vivo; settings: mean ± SE, controls 4.86 ± 0.60
From the text: as §8, §9

[5] = 3 h, 3th hour, read-out: DE50 Oedema by carrageenin 3th hour
[6] = 6 h, 6th hour, read-out: DE50 Oedema by carrageenin 6th hour
[7] = 1st hour, read-out: DE50 Oedema by carrageenin 1st hour
[8] = 3 h, 3th hour, read-out: DE50 Oedema by ovoalbumin 3th hour
[9] = 6 h, 6th hour, read-out: DE50 Oedema by ovoalbumin 6th hour
[10] = 1st hour, read-out: DE50 Oedema by ovoalbumin 1st hour
[11] = guinea pig, orally 60 min before citric acid aerosol (5 min exposure), C.F. 95%

Structure (SMILES) | LD50 at 336 h (Acute toxicity, rat; ip) | LD50 at 336 h (Acute toxicity, rat; po) | ED50 (oedema by carrageenin; [5]) | ED50 (oedema by carrageenin; [6]) | ED50 (oedema by carrageenin; [7]) | ED50 (oedema by ovoalbumin; [8]) | ED50 (oedema by ovoalbumin; [9]) | ED50 (oedema by ovoalbumin; [10]) | ED50 (5% citric acid aerosol; [11]) | LD50 at 336 h (Acute toxicity, mouse; ip) | LD50 at 336 h (Acute toxicity, mouse; po) | Duration of the sleeping time induced by barbiturates (Central Nervous System [2]; 50 mg/kg p.o.) | Duration of the sleeping time induced by barbiturates (Central Nervous System [2]; 100 mg/kg p.o.) | Duration of the sleeping time induced by barbiturates (Central Nervous System [2]; 200 mg/kg p.o.) | ED50 [3] | Time spent in the sleeping condition (Central Nervous System [4]; 25 mg/kg p.o.) | Time spent in the sleeping condition (Central Nervous System [4]; 50 mg/kg p.o.) | Time spent in the sleeping condition (Central Nervous System [4]; 100 mg/kg p.o.) | further results
OC[C@@H](O)CN1CCN(c2ccccc2)CC1 [(-), (-)-dropropizine] | 401 mg/kg | 887 mg/kg | 212 mg/kg | 241 mg/kg | 233 mg/kg | 72.2 mg/kg | 121 mg/kg | 55.6 mg/kg | 151 mg/kg | 408 mg/kg | 1290 mg/kg | 29.5 ± 2.59 min | 54.4 ± 7.36 min | 128.83 ± 17.14 min | 13.5 mg/kg | 5.8 ± 0.84 s | 5.7 ± 0.48 s | 13.68 ± 1.80 s | antitussive activity (antitussive activity): unchanged antitussive and antiinflammatory activity; also recorded: same antitussive activity as the racemic mixture; antiinflammatory activity [1]: unchanged antitussive and antiinflammatory activity
OCC(O)CN1CCN(c2ccccc2)CC1 (racemic) [(±), 3-(4-phenyl-1-piperazinyl)-1,2-propanediol] | 393 mg/kg | 607 mg/kg | 77.9 mg/kg | 117 mg/kg | 39 mg/kg | 28.5 mg/kg | 37.1 mg/kg | 23.6 mg/kg | 117 mg/kg | 340 mg/kg | 900 mg/kg | 118.83 ± 25.69 min | 132.33 ± 13.16 min | 134.16 ± 17.55 min | 11.7 mg/kg |  |  |  | 
OC[C@H](O)CN1CCN(c2ccccc2)CC1 [(+), d-isomer of 3-(4-phenyl-1-piperazinyl)-1,2-propanediol] | 363 mg/kg | 721 mg/kg | 80.5 mg/kg | 69.7 mg/kg | 43.9 mg/kg |  |  |  | 141 mg/kg | 319 mg/kg | 872 mg/kg |  |  |  | 23.5 mg/kg | 6.18 ± 0.72 s | 12.36 ± 0.9 s | 28.92 ± 1.7 s | 
COc1ccc2c3c1O[C@H]1[C@@H](O)C=C[C@H]4[C@@H](C2)N(C)CC[C@@]341 [Codeine, codeine, reference compound] |  |  |  |  |  |  |  |  |  |  |  |  |  |  |  |  |  |  | ED50 (5% citric acid aerosol): 65.1 mg/kg
